Reference: patent publication US20180028480A1, “METHODS OF REDUCING OR PREVENTING OXIDATIVE MODIFICATION OF MEMBRANE POLYUNSATURATED FATTY ACIDS” (Amarin Pharmaceuticals Ireland Limited, priority 2015, published 2018)

Experiments:
[1] = X-ray diffraction of glucose-treated DLPC/cholesterol membranes under oxidative conditions (Example 8); settings: for effect on d-space values: 10.0 μM, 0.6 C/P, glucose-induced lipid peroxidation 72 hours (FIG. 14); for cholesterol domain peaks compared to samples treated with EPA: after 96 hours, C/P 0.6:1, drug-to-phospholipid 1:30
Description: Values are reported as mean±S.D. (N=3).
[…] Membranes were reconstituted from DLPC and cholesterol at a C/P mole ratio of 0.6:1 and treated with the various agents to achieve a total drug-to-phospholipid mole ratio of 1:30.
(§1) Multilamellar vesicles (MLVs) were prepared as binary mixtures of POPC and cholesterol at 50 mol %. MLVs with DLPC and cholesterol at cholesterol-to-phospholipid (C/P) mole ratios of 0.1:1 to 1.1:1 were also prepared in a similar manner. Component lipids (in chloroform) were transferred to borosilicate culture tubes and combined with vehicle (ethanol) or an equal volume of EPA, DHA, fenofibrate, niacin or gemfibrozil stock solution(s) and adjusted to achieve a drug-to-phospholipid (D/P) mole ratio of 1:30. Membranes reconstituted from POPC and cholesterol (at 50 mol % cholesterol) were treated with each of the various agents at 5 mol %. Samples were then shell-dried under nitrogen gas and placed under vacuum for 3 hours to remove residual solvent.
After drying, each sample was resuspended in glucose-free or glucose-containing saline buffer to yield a final phospholipid concentration of 2.5 mg/mL. Lipid suspensions were then vortexed for 3 minutes at ambient temperature to form MLVs.
(§2) Membrane samples were oriented for x-ray diffraction analysis as described in Mason, et al., J. Biol. Chem., vol. 281, pages 9337-45 (2006). Briefly, 100 μL aliquots of each MLV preparation (containing 250 μg of phospholipid) were transferred to Lucite sedimentation cells fitted with a removable aluminum foil substrate designed to collect MLVs into a single membrane pellet upon centrifugation. Samples were then loaded into a Sorvall AH-629 swinging bucket ultracentrifuge rotor (DuPont Corp., Wilmington, Del.) and centrifuged at 35,000 g, 5° C., for 1.5 hours.
Following membrane orientation, sample supernatants were aspirated and aluminum foil substrates mounted onto curved glass slides. The membrane samples were then placed in hermetically sealed containers in which temperature and relative humidity were controlled during x-ray diffraction analysis. Data reported in this study were collected at 20° C. and 74% relative humidity.
This technique allows for precise measurement of the unit cell periodicity, or d-space, of the membrane lipid bilayer, which is the distance from the center of one lipid bilayer to the next, including surface hydration.
The presence of cholesterol domains in a given membrane sample results in the production of distinct Bragg (diffraction) peaks that have singular periodicity values of 34 Å and 17 Å. These peaks are typically referred to as first- and second-order cholesterol domain peaks.

[2] = Fluorescence anisotropy, DPH apparent rotational correlation time (Example 8); settings: POPC, 0 or 50 mol % cholesterol; increasing omega-3 fatty acid concentrations (FIGS. 16A-16B)
Excerpt: FIGS. 16A-16B show the dose-dependent effects of EPA and DHA on the ARCT measured for DPH in POPC membranes prepared at either 0 or 50 mol % cholesterol. †p=0.0331 versus cognate DHA treatment (5 mol % omega-3 fatty acids (O3FA), no cholesterol); ^§p=0.0016 versus cognate DHA treatment (5 mol % O3FA, 50 mol % cholesterol); ^‡p=0.0032 versus cognate DHA treatment (10 mol % O3FA, 50 mol % cholesterol) (unpaired, two-tailed Student's t-test). Values are mean±S.D. (N=3).
Fluorescence anisotropy experiments were conducted using large unilamellar vesicles (LUVs) of 100 nm diameter of either POPC (or POPC/cholesterol) containing increasing concentrations of EPA or DHA and 1 mol % DPH fluorescent. Briefly, 640 nmol of total lipid (phospholipid and sterol) and 6.4 nmol of fluorescent probe was mixed well and dried under a stream of nitrogen while being warmed gently at 35° C. […]
In order to ensure that the anisotropy values measured for DPH are not influenced by lifetime-induced artifacts, the apparent (average) rotational correlation times (ARCT) were calculated using Perrin's equation: […]
where r0 is the limiting anisotropy of DPH, r is the steady state anisotropy, and is the mean fluorescence lifetime.

[3] = X-ray diffraction of cholesterol-enriched POPC membranes without oxidative conditions (Example 8); settings: 5 mol %; 50 mol % cholesterol; 15° C., 20° C., 30° C. (FIG. 18)
Description: Values are mean±S.D. (N=3).
FIGS. 18A-18C show representative x-ray diffraction patterns collected from cholesterol-enriched model membranes treated with vehicle (control), eicosapentaenoic acid (EPA), or docosahexaenoic acid (DHA) and examined at 15° C., 20° C., and 30° C. Membranes were reconstituted from POPC and cholesterol at 50 mol % cholesterol and treated with each of the various agents at 5 mol % (to match treatments used in corresponding lipid dynamics experiments). Each sample was maintained at 74% relative humidity by exposing the samples to a saturated solution of L-(+) tartaric acid. […] DHA, but not EPA or vehicle, induced the formation of cholesterol domains, which are indicated by a distinct set of diffraction peaks (shaded peaks) having a characteristic d-space value of 34 Å and shown to be stable over a broad range of temperatures.
as §1
as §2, with “Samples were then loaded into a Sorvall AH-629 swinging bucket ultracentrifuge rotor (DuPont Corp., Wilmington, Del.) and centrifuged at 35,000 g, 5° C., for 1.5 hours.” left out

[4] = tested on: lipid vesicles enriched with PUFAs and cholesterol; experiment: Glucose-induced membrane lipid peroxidation (LOOH) in DLPC/cholesterol multilamellar vesicles (Example 4); format: biochemical; settings: each at 1.0 μM; glucose 200 mg/dL; 96 hours
Description: Vitamin E (α-tocopherol) was also purchased from Sigma-Aldrich and prepared in ethanol at 1.0 mM (ε32 3.06×10^4 M^−1 cm^−1 at 294 nm) just prior to experimental use. […] All test compounds were further diluted in ethanol or aqueous buffer as needed. Glucose was prepared in saline buffer (0.5 mM HEPES, 154 mM NaCl, pH 7.3) at 11.0 mM (200 mg/dL). CHOD-iodide color reagent (stock) was prepared, with slight modification, as described by from El-Saadani et al. (J. […] Prior to experimental use, the CHOD reagent was activated by adding 24 μM ethylenediaminetetraacetic acid (EDTA), 20 μM butylated hydroxytoluene (BHT), and 0.2% Triton X-100. Multilamellar vesicles (MLVs) were prepared as binary mixtures of DLPC (1.0 or 2.5 mg total phospholipid per sample) and cholesterol at a fixed cholesterol-to-phospholipid (C/P) mole ratio of 0.6:1. Component lipids (in chloroform) were transferred to 13×100 mm borosilicate culture tubes and combined with vehicle (ethanol) or an equal volume of fatty acid, vitamin E, or ATM stock solutions, each adjusted to achieve desired treatment concentrations. Samples were shell-dried under nitrogen gas and placed under vacuum for 1 h to remove residual solvent. […] Lipid suspensions were then vortexed for 3 min at ambient temperature to form MLVs. All MLV samples were subjected to time-dependent autoxidation by incubating at 37° C. in an uncovered, shaking water bath. This method allows lipid peroxidation to occur gradually without requiring the use of exogenous initiators. Small aliquots (5-100 μL) of each sample were removed, immediately following MLV preparation (0 hour) and after exposing samples to oxidative conditions for 72 or 96 hour, and combined with 1.0 mL of activated CHOD-iodide color reagent. Aliquot volume was reduced with each successive time point to ensure that spectrophotometric readings were within the optimal adsorption range. Test samples were covered and incubated in darkness at room temperature for at least 4 hr. Sample absorbances were then measured against a CHOD blank at 365 nm using a Beckman DU-640 spectrophotometer. The CHOD colorimetric assay is based on the oxidation of iodide (I^−) by lipid hydroperoxide (LOOH) to form triiodide (I3^−), the quantity of which is directly proportional to the amount of LOOH present in the lipid sample. The molar absorptivity (c) of I3^− is 2.46×10^4 M^−1 cm^−1 at 365 nm. […] The concentration of glucose selected was consistent with previous experimental studies of hyperglycemia under controlled laboratory conditions or observed in well-defined animal models of Type II diabetes following a glucose challenge. […] Values in FIG. 1 are mean±S.D. (N=6). […]

Structure (SMILES)	effect on d-space values [1]	cholesterol domain peaks compared to samples treated with EPA [1]	DPH apparent rotational correlation time / membrane fluidity [2]	membrane cholesterol domain formation [3]	antioxidant effect (LOOH formation), separate treatments [4]
Cc1ccc(C)c(OCCCC(C)(C)C(=O)O)c1 [gemfibrozil]	significant reductions in d-space	disproportionately greater	–	–	–
O=C(O)c1cccnc1 [niacin, nicotinic acid]	significant reductions in d-space	disproportionately greater	–	–	–
CC/C=C\C/C=C\C/C=C\C/C=C\C/C=C\C/C=C\CCC(=O)O [DHA, cis-4,7,10,13,16,19-docosahexaenoic acid, reference compound]	–	–	reduced DPH apparent rotational correlation time	induced formation of membrane cholesterol domains	–
CC(C)c1c(C(=O)Nc2ccccc2O)c(-c2ccccc2)c(-c2ccc(F)cc2)n1CC[C@@H](O)C[C@@H](O)CC(=O)O [ATM, Atorvastatin ortho- (o-) hydroxy (active) metabolite, reference compound]	–	–	–	–	separate and potent antioxidant effects
